Measured values reported in patent US7476508B2, “Method of screening agent for improving memory and learning ability” (Astellas Pharma Inc., priority 2003, dated 2009).

Columns and labels:
[1] = system: HEK cells not expressing the polypeptide of SEQ ID NO: 2; test: Calcium influx (Fluo3-AM, FLIPR) in control HEK293 cells; assay type: cell-based, human; details: for increase in fluorescent intensity: negative control cells
Description: (§1) The transformants (4×10^4 cells) obtained in Example 3 were incubated at 37° C. for an hour in the presence of a calcium-sensitive fluorescent reagent (Fluo3-AM; DOJINDO), and the reagent was incorporated into the cells. The cells were washed with a physiological saline to remove the reagent not incorporated. A physiological saline supplemented with PS (final concentration=10 μmol/L) was added to the treated cells, and a time course of fluorescence emitted from the cells was measured using an automated fluorescence detector (FLIPR; Molecular Device). As controls, the same procedures were repeated, except that HEK293 cells transfected with pcDNA3.1(+) (i.e., control cells not expressing the polypeptide of SEQ ID NO: 2) were used, or except that a physiological saline without PS was used.
Various compounds were examined, and, as a compound showing an increase in fluorescent intensity, N-[3-(2,6-dichlorophenyl)-5-methylisoxazole-4-yl]-N′-ethyl-N-methyl-N′-phenylurea (code no. SPB 00071; MAYBRIDGE), 3-(2,6-difluorophenyl)-4-(piperidine-1-ylmethyl)-1,3-thiazole-2(3H)-thion (code no. MS 1368; MERLIN), 3-(2,6-difluorophenyl)-4-(pyrrolidine-1-ylmethyl)-1,3-thiazole-2(3H)-thion (code no. MS 1370; MERLIN), and N-(2-acetyl-3-thienyl)-2-[(2-chloro-6-fluorobenzyl)sulfanil]acetamide (code no. GK 00678; Ryan Scientific) (hereinafter referred to as compounds A, B, C, and D, respectively) were found.

[2] = system: primary cultured neurons derived from rat cerebral cortex; test: Calcium influx in primary cultured neurons derived from rat cerebral cortex; assay type: cell-based
From the text: (§2) A pregnant rat was anesthetized with diethyl ether, and the chest (heart) was dissected to sacrifice the rat by exsanguination. An abdomen was opened, and the uterus was dissected. After a fetus was sterilized with rubbing alcohol in a clean bench, the whole brain was dissected and placed in a petri dish containing a culture medium for neurons (SUMILON; Sumitomo Bakelite). The cerebral cortex and the hippocampus were dissected with fine forceps under a stereomicroscope, and transferred to 50-mL tubes independently. Each tube was allowed to stand, to precipitate each tissue, and each supernatant was removed by suction. A solution for cell dissocition [phosphate buffered saline (PBS) supplemented with 1% papain, 150 U/mL DNase I, 0.02% L-cysteine, 0.02% bovine serum albumin (BSA), and 0.5% glucose] was added to each tube, incubated at 37° C. for 15 minutes, and centrifuged (1000 rpm, 4° C., 5 minutes). Each supernatant was removed by suction, and 10 mL of a serum-free medium was added to each tube. The whole in each tube was dispersed by pipetting several times, and cell debris was removed through a filter to obtain each cell suspension.
This example was carried out in accordance with known methods (Yoshihisa Kudo ed., Jikken Igaku, Supplement “Saibo-nai karushiumu jikken purotokoru”, 1996, Youdo-sha), except for the following procedures.
A time course of fluorescence emitted from cells was measured in accordance with the method described in Example 6, except that the primary cultured neurons (4×10^4 cells) derived from the rat brain (cerebral cortex), obtained in Example 13, were cultured for a week and used, and that the final concentration of PS was 10 μmol/L or 50 μmol/L. As a control, a physiological saline without PS was used.
Any one of compounds A, B, C, and D, and PS was applied to primary cultured neurons derived from the rat cerebral cortex obtained in Example 13, and a calcium influx into the neurons was measured. More particularly, the measurement was carried out in accordance with the method described in Example 14, except that the number of cells was 1×10^5 cells.

[3] = molecular target: T1, polypeptide consisting of the amino acid sequence of SEQ ID NO: 2 (Homo sapiens, UniProt Q9HCF6, R1695Q); test: Calcium influx with calcium-sensitive fluorescent reagent (Fluo3-AM, FLIPR) in HEK293 transformants; assay type: cell-based; details: for EC50: method of Example 6, read-out: EC50 of activation (calcium influx)
T1 construct: expressed in transfected cells
From the text: (§3) To detect a channel activity of the polypeptide consisting of the amino acid sequence of SEQ ID NO: 2, animal cells were transfected with the expression vector pcDNA3.1-MLSN2 obtained in Example 1 to express the polypeptide. The expression vector pcDNA3.1-MLSN2 obtained in Example 1 and reagents for transfection (LIPOFECTAMINE or LIPOFECTAMINE2000; Invitrogen) were used to transform human embryonic kidney derived HEK293 cells (ATCC No.: CRL-1573) and induce the expression of the polypeptide consisting of the amino acid sequence of SEQ ID NO: 2. The cells transfected with LIPOFECTAMINE were used in Examples 4 and 5, and the cells transfected with LIPOFECTAMINE2000 were used in Examples 6, 7, and 16.
as §1
A screening of compounds (activating agents) capable of activating the polypeptide consisting of the amino acid sequence of SEQ ID NO: 2 was carried out. As an index of activation, a calcium influx into cells was detected by using a calcium-sensitive fluorescent reagent, more particularly, in accordance to the method described in Example 6.

[4] = system: primary cultured neurons derived from the rat hippocampus; test: Spontaneous excitatory postsynaptic currents (sEPSCs) by whole-cell patch-clamp in primary cultured neurons; assay type: cell-based; details: voltage-clamped at −60 mV
From the text: as §2
To confirm the effects of the activating agents on improving the memory, improving learning ability, and/or antidementia, any one of the compounds A, B, C, and D, which were found in Example 16 and can activate the polypeptide consisting of the amino acid sequence of SEQ ID NO: 2, was applied to the neurons to examine an activity of enhancing neurotransmission in the neurons. More particularly, effects of compounds A, B, C, and D on spontaneous excitatory postsynaptic currents (sEPSCs) in primary cultured neurons derived from the rat hippocampus, obtained in Example 13, were examined by a whole-cell patch-clamp method. The sEPSCs is a change of current generated in the neurons, when synaptic vesicles located at the terminus of another cell spontaneously exocytosis a neurotransmitter, and the former cell receives the released neurotransmitter. Therefore, neurotransmission between the neurons can be measured by measuring the sEPSCs (Journal of Neurophysiology, 76, 3159-3168, 1996; The Journal of Neuroscience, 19, 5311-5321, 1999). Further, it is known that the neurotransmission is suppressed by inhibiting the sEPSCs (Journal of Neuroscience Research, 72, 116-124, 2003).
More particularly, the cells (approximately 1×10^5 cells per dish) obtained in Example 13 were plated in a culture dish having a diameter of 35 mm, and cultured for 1 to 5 weeks. As a culture medium, a culture medium for the neurons (SUMILON; Sumitomo Bakelite) was used. Other procedures for cultivation were carried out in accordance with known methods (Methods in Neuroscience vol. 2, Cell culture, P. Michael Conn ed, Academic Press, Inc. 1990). The cell was voltage-clamped at −60 mV by a whole-cell voltage-clamp method, and a whole-cell current generated when PS or each compound was applied was measured (Yasunobu Okada ed., “Shin pacchi kuranpu jikken gijyutsu hou”, Yoshioka shoten, 2001). A solution containing 140 mmol/L NaCl, 5.4 mmol/L KCl, 2 mmol/L CaCl2, 0.8 mmol/L MgCl2, 15 mmol/L glucose, 10 mmol/L HEPES-Na (pH=7.4), 20 μmol/L bicuculline, and 1 μmol/L strychnine was used as an extracellular solution. A solution containing 100 mmol/L potassium gluconate, 10 mmol/L EGTA, 5 mmol/L MgCl2, 2 mmol/L K2ATP, 0.3 mmol/L Na2GTP, and 40 mmol/L HEPES-K (pH=7.25) was used as an intracellular solution.

aged rats = details: non-patent reference 5; cited from earlier work
[5] = system: control cell not expressing the polypeptide of SEQ ID NO: 2; test: Whole-cell voltage-clamp in control cell transfected with no expression vector; assay type: cell-based, human; details: same conditions as the transfected cell
Description: Each cell obtained in Example 3 was voltage-clamped by a whole-cell voltage-clamp method, and a whole-cell current generated when PS was applied was measured. A solution containing 149 mmol/L NaCl, 5 mmol/L KCl, 2 mmol/L CaCl2, 0.8 mmol/L MgCl2, and 10 mmol/L HEPES-Na (pH=7.4) was used as an extracellular solution, and a solution containing 147 mmol/L CsCl, 4.5 mmol/L EGTA, and 9 mmol/L HEPES-Cs(pH=7.2) was used as an intracellular solution.
(§4) When PS (100 μmol/L) was extracellularly applied to the cell transfected with plasmid pcDNA3.1-MLSN2 at a holding potential of −40 mV, an inward current (−5.8±0.9, n=10) was measured. After washing the cell, PS was applid thereto at a holding potential of +40 mV, a large outward current (108.9±19.3, n=10) was measured. A current-voltage relationship was measured using a voltage ramp during the response, an outward rectifier was observed.

hippocampal slices = details: non-patent references 3, 6 and 7; cited from earlier work
[6] = molecular target: T1, polypeptide consisting of the amino acid sequence of SEQ ID NO: 2; test: Whole-cell voltage-clamp detection of channel activity in transfected HEK293 cells; assay type: cell-based; details: n=10
From the text: as §3
Each cell obtained in Example 3 was voltage-clamped by a whole-cell voltage-clamp method, and a whole-cell current generated when PS was applied was measured. […]
as §4

[7] = final concentration 10 μmol/L, 1×10^5 cells

T1 sequence (Q9HCF6 154-1707 isoform Q9HCF6-2 R1670Q): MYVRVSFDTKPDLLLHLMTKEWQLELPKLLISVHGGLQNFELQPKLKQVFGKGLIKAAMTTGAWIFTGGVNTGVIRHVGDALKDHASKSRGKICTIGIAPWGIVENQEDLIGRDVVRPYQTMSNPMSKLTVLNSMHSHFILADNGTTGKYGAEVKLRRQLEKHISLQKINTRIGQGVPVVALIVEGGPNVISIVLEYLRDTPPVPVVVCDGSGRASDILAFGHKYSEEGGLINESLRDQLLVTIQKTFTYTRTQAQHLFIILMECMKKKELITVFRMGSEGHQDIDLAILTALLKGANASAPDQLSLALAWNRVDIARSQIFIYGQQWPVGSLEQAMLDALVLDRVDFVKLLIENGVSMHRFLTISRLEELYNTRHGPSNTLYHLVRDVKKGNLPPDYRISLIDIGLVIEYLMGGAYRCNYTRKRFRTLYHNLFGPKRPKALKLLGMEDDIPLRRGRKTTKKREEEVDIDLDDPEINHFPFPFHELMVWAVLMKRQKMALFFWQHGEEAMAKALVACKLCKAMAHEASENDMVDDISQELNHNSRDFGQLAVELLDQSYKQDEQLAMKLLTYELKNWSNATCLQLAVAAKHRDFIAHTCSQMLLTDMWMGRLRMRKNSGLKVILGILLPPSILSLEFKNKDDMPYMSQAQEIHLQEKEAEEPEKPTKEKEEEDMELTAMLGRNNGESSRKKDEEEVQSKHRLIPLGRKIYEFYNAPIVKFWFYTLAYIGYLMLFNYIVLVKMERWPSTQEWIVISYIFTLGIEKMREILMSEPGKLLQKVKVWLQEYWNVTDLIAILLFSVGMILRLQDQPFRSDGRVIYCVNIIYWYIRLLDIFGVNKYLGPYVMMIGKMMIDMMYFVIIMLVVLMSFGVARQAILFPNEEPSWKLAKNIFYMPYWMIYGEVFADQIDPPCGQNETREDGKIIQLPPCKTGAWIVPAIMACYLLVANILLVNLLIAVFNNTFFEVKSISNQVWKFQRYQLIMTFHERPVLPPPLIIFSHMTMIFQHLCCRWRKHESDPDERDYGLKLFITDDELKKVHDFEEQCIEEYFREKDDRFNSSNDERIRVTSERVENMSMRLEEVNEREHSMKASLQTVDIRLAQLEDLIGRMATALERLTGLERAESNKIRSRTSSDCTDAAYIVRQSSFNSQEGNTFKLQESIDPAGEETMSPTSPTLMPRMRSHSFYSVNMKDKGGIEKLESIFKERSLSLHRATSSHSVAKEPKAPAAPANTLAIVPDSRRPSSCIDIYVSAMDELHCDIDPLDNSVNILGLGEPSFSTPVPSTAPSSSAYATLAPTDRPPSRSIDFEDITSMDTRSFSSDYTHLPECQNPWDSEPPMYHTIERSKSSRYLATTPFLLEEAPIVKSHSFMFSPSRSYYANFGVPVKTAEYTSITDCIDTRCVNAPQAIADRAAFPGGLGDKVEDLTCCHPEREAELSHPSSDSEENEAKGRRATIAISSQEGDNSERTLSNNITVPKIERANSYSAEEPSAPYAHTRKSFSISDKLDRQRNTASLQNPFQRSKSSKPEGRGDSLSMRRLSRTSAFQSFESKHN

Row | Compound | increase in fluorescent intensity [1] | increase in fluorescent intensity (calcium influx) [2, 7] | EC50 [3] [µM] | enhancement of sEPSCs ([4]; 10 μmol/L) | memory and learning ability (aged rats) | whole-cell currents on PS application [5] | fluorescent intensity (calcium influx) ([1]; PS 10 μmol/L, HEK293 cells transfected with pcDNA3.1(+)) | increase in fluorescent intensity (calcium influx) ([2]; 10 μmol/L, 4×10^4 cells cultured for a week) | increase in fluorescent intensity (calcium influx) ([2]; 50 μmol/L, 4×10^4 cells cultured for a week) | neurotransmission (acetylcholine release, hippocampal spike frequency, LTP) (hippocampal slices) | increase in fluorescent intensity (calcium influx) ([3]; final concentration 10 μmol/L, immediately after addition) | inward current ([6]; PS 100 μmol/L applied extracellularly, holding potential −40 mV) | outward current ([6]; PS applied after washing, holding potential +40 mV) | enhancement of sEPSCs ([4]; 1 μmol/L)
1 | Fc1cccc(F)c1-n1c(CN2CCCCC2)csc1=S [compound B, 3-(2,6-difluorophenyl)-4-(piperidine-1-ylmethyl)-1,3-thiazole-2(3H)-thion] | such an increase in fluorescent intensity was not detected | an increase in fluorescent intensity was detected | 6.8 | the enhancement of sEPSCs was detected | – | – | – | – | – | – | – | – | – | –
2 | CCN(C(=O)N(C)c1c(-c2c(Cl)cccc2Cl)noc1C)c1ccccc1 [compound A, N-[3-(2,6-dichlorophenyl)-5-methylisoxazole-4-yl]-N′-ethyl-N-methyl-N′-phenylurea] | such an increase in fluorescent intensity was not detected | an increase in fluorescent intensity was detected | 9.8 | the enhancement of sEPSCs was detected | – | – | – | – | – | – | – | – | – | –
3 | Pregnenolone sulfate [PS, reference compound] | – | an increase in fluorescent intensity was detected | – | the enhancement of sEPSCs was similarly detected | the memory and learning ability were improved | such currents were not observed | approximately 0 count | an increase in fluorescent intensity was detected | an increase in fluorescent intensity was detected | enhancement of neurotransmission | approximately 10,000 counts | −5.8±0.9 | 108.9±19.3 | –
4 | CC(=O)c1sccc1NC(=O)CSCc1c(F)cccc1Cl [compound D, N-(2-acetyl-3-thienyl)-2-[(2-chloro-6-fluorobenzyl)sulfanil]acetamide] | such an increase in fluorescent intensity was not detected | an increase in fluorescent intensity was detected | 3.5 | – | – | – | – | – | – | – | – | – | – | the enhancement of sEPSCs was detected
5 | Fc1cccc(F)c1-n1c(CN2CCCC2)csc1=S [compound C, 3-(2,6-difluorophenyl)-4-(pyrrolidine-1-ylmethyl)-1,3-thiazole-2(3H)-thion] | such an increase in fluorescent intensity was not detected | an increase in fluorescent intensity was detected | 1.9 | the enhancement of sEPSCs was detected | – | – | – | – | – | – | – | – | – | –
